Data taken from the supplement of paper PMC10307832.

Key:
Test in all cases: relative viability (nuclei count vs DMSO), 5 days (fraction); higher = more cells survive
Erlotinib + Dasatinib = compound: C#Cc1cccc(Nc2ncnc3cc(OCCOC)c(OCCOC)cc23)c1 [Erlotinib] + Cc1nc(Nc2ncc(C(=O)Nc3c(C)cccc3Cl)s2)cc(N2CCN(CCO)CC2)n1 [Dasatinib] (partner 0.075 µM)
Procedure, shortened: (§1)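 Dosing by pin tool came one day after lung cancer cell lines were seeded in 1536-well plates, using either one drug or a fixed anchor-drug dose plus five library-drug doses (not always all listed) in √10 steps. After 5 days, nuclei were counted on 4× images. Relative viability is treated-well nuclei count divided by vehicle-well nuclei count, and values are medians of duplicate plates.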

Erlotinib + Pemetrexed = compound: C#Cc1cccc(Nc2ncnc3cc(OCCOC)c(OCCOC)cc23)c1 [Erlotinib] + Nc1nc2[nH]cc(CCc3ccc(C(=O)N[C@@H](CCC(=O)O)C(=O)O)cc3)c2c(=O)[nH]1 [Pemetrexed] (partner 0.2 µM)
Procedure, shortened: as §1

AT9283 + Foretinib = compound: O=C(Nc1c[nH]nc1-c1nc2ccc(CN3CCOCC3)cc2[nH]1)NC1CC1 [AT9283] + COc1cc2c(Oc3ccc(NC(=O)C4(C(=O)Nc5ccc(F)cc5)CC4)cc3F)ccnc2cc1OCCCN1CCOCC1 [Foretinib] (partner 0.25 µM)
Procedure, shortened: as §1

AT9283 + Lapatinib = compound: O=C(Nc1c[nH]nc1-c1nc2ccc(CN3CCOCC3)cc2[nH]1)NC1CC1 [AT9283] + CS(=O)(=O)CCNCc1ccc(-c2ccc3ncnc(Nc4ccc(OCc5cccc(F)c5)c(Cl)c4)c3c2)o1 [Lapatinib] (partner 2 µM)
Procedure, shortened: as §1

AT9283 + Linsitinib = compound: O=C(Nc1c[nH]nc1-c1nc2ccc(CN3CCOCC3)cc2[nH]1)NC1CC1 [AT9283] + C[C@]1(O)C[C@@H](c2nc(-c3ccc4ccc(-c5ccccc5)nc4c3)c3c(N)nccn32)C1 [Linsitinib] (partner 1 µM)
Procedure, shortened: as §1

Cell Line | relative viability (Erlotinib + Dasatinib; first compound 0.02 µM) | relative viability (Erlotinib + Dasatinib; first compound 0.6325 µM) | relative viability (Erlotinib + Dasatinib; first compound 2 µM) | relative viability (Erlotinib + Pemetrexed; first compound 0.02 µM) | relative viability (Erlotinib + Pemetrexed; first compound 0.2 µM) | relative viability (Erlotinib + Pemetrexed; first compound 0.6325 µM) | relative viability (Erlotinib + Pemetrexed; first compound 2 µM) | relative viability (AT9283 + Foretinib; first compound 0.003 µM) | relative viability (AT9283 + Foretinib; first compound 0.03 µM) | relative viability (AT9283 + Foretinib; first compound 0.09487 µM) | relative viability (AT9283 + Foretinib; first compound 0.3 µM) | relative viability (AT9283 + Lapatinib; first compound 0.003 µM) | relative viability (AT9283 + Lapatinib; first compound 0.03 µM) | relative viability (AT9283 + Lapatinib; first compound 0.09487 µM) | relative viability (AT9283 + Lapatinib; first compound 0.3 µM) | relative viability (AT9283 + Linsitinib; first compound 0.003 µM) | relative viability (AT9283 + Linsitinib; first compound 0.03 µM) | relative viability (AT9283 + Linsitinib; first compound 0.09487 µM) | relative viability (AT9283 + Linsitinib; first compound 0.3 µM) | relative viability (Erlotinib + Dasatinib; first compound 0.2 µM)
NCI-H23 | 0.876 | 0.928 | 0.698 | 0.774 | 0.575 | 0.747 | 0.523 | 0.985 | 0.717 | 0.412 | 0.32 | 0.968 | 0.395 | 0.225 | 0.207 | 0.801 | 0.338 | 0.232 | 0.145 | –
NCI-H1563 | 0.38 | 0.427 | 0.382 | 0.659 | 0.83 | 0.92 | – | 0.906 | 0.765 | 0.708 | 0.633 | 0.941 | 0.811 | 0.843 | 0.701 | 1.26 | 0.892 | 0.832 | 0.757 | 0.522
NCI-H1915 | 0.338 | 0.327 | 0.273 | 0.532 | 0.482 | 0.434 | 0.487 | 1.04 | 0.995 | 0.451 | 0.256 | 0.885 | 0.931 | 0.477 | 0.217 | 1.06 | 1.01 | 0.529 | 0.239 | 0.376
LU99A | 0.556 | 0.584 | 0.475 | 0.166 | 0.196 | 0.16 | 0.151 | 0.751 | 0.34 | 0.233 | 0.237 | 0.846 | 0.357 | 0.188 | 0.207 | 0.409 | 0.196 | 0.165 | 0.165 | 0.474
RERF-LC-KJ | 0.89 | 0.662 | 0.583 | 0.461 | 0.457 | 0.444 | 0.44 | 0.922 | 0.498 | 0.279 | 0.22 | 0.809 | 0.516 | 0.256 | 0.191 | 0.995 | 0.508 | 0.264 | 0.208 | 0.658
NCI-H1755 | 0.451 | 0.386 | 0.433 | 0.477 | 0.398 | 0.402 | 0.368 | 0.871 | 0.755 | 0.559 | 0.496 | 1.08 | 0.775 | 0.357 | 0.399 | 0.996 | 0.847 | 0.516 | 0.404 | 0.409
NCI-H596 | 0.634 | 0.538 | 0.472 | 0.609 | 0.455 | 0.489 | 0.457 | 0.813 | 0.822 | 0.744 | 0.59 | 0.845 | 0.884 | 0.623 | 0.404 | 1.06 | 1.01 | 0.912 | 0.564 | 0.565
NCI-H1734 | 0.574 | 0.473 | 0.428 | 0.45 | 0.39 | 0.4 | 0.397 | 0.904 | 0.309 | 0.334 | 0.246 | 0.988 | 0.687 | 0.291 | 0.249 | 0.85 | 0.583 | 0.288 | 0.294 | 0.482
NCI-H661 | 0.912 | 0.735 | 0.443 | 0.925 | 0.841 | 0.838 | 0.828 | 1.01 | 0.472 | 0.384 | 0.364 | 0.471 | 0.518 | 0.276 | 0.286 | 0.513 | 0.474 | 0.252 | 0.295 | 0.693
NCI-H2009 | 0.365 | 0.432 | 0.238 | 1.07 | 0.999 | 1.01 | 1.04 | 1.29 | 1.07 | 0.438 | 0.29 | 1.01 | 0.337 | 0.31 | 0.305 | 1.21 | 0.704 | 0.315 | 0.323 | 0.351
LC-2-ad | 0.724 | 0.589 | 0.452 | 0.307 | 0.279 | 0.274 | 0.262 | 0.881 | 0.71 | 0.336 | 0.225 | 0.938 | 0.0948 | 0.0976 | 0.0947 | 0.847 | 0.257 | 0.116 | 0.112 | 0.466
NCI-H2085 | 0.235 | 0.266 | 0.249 | 0.867 | 0.695 | 0.716 | 0.474 | 1.1 | 0.736 | 0.51 | 0.338 | 0.798 | 0.36 | 0.297 | 0.382 | 0.847 | 0.687 | 0.245 | 0.214 | 0.2
NCI-H650 | 0.38 | 0.526 | 0.425 | 0.966 | 0.852 | 0.991 | 1 | 1.08 | 0.958 | 0.332 | 0.154 | 0.832 | 0.842 | 0.252 | 0.199 | 0.7 | 0.601 | 0.262 | 0.164 | 0.456
EMC-BAC-2 | 0.33 | 0.337 | 0.342 | 0.466 | 0.425 | 0.432 | 0.421 | 1.04 | 0.305 | 0.289 | 0.208 | 0.875 | 0.599 | 0.229 | 0.225 | 0.85 | 0.634 | 0.205 | 0.226 | 0.314
NCI-H1395 | 0.405 | 0.411 | 0.408 | 0.807 | 0.959 | 0.868 | 0.794 | 0.729 | 0.88 | 0.465 | 0.397 | 0.904 | 0.703 | 0.412 | 0.427 | 1.08 | 0.901 | 0.373 | 0.383 | 0.442
NCI-H322M | 0.231 | 0.257 | 0.238 | 0.604 | 0.548 | 0.521 | 0.507 | 0.958 | 0.544 | 0.41 | 0.462 | 0.548 | 0.272 | 0.32 | 0.335 | 0.932 | 0.682 | 0.478 | 0.425 | 0.246
